Where two headings read alike, the source gives them in different places.
Columns and labels:
Assay type in all cases: cell-based, HIV-1
[1] = tested on: recombinant virus from patient viral RNA (Example 10, drug-naive patient); assay: Recombinant virus assay (MT4/MTT), drug-naive patient of Example 10; settings: for IC50: Human immunodeficiency virus 1, Table 6, Example 10 patient virus; for ratio (1)/(2): Table 6, patient mean IC50 / recIIIB IC50, Example 10
Description: (§1) RNA was isolated from 100 μl of plasma according to the method described by Boom, R. et al. (1990, supra), and was reverse transcribed with the GeneAmp reverse transcriptase kit (Perkin Elmer) as described by the manufacturer and using an HIV-1 specific downstream primer (OUT3: 5′-CATTGCTCTCCAATTACTGTGATATTTCTCATC-3′; SEQ ID NO: 1). PCR on reverse transcribed RNA was performed with inner and outer primers as described by Kellam, P. and Larder, B. A. (1994, supra). After chloroform extraction and centrifugation on Centricon 100 columns or centrifugation on anion-exchange spin columns (Quiagen), the isolated PCR product was ready for use in the transfection reactions.
(§2) MT4 cells were subcultured at a density of 250,000 cells/ml before transfection (exponential growth phase). Cells were pelleted and resuspended in phosphate buffered saline (PBS) at a concentration of […]. A 0.8 ml portion (2.5 10E6 cells/ml) was used for each transfection. Transfection was performed with the Bio-Rad Gene pulser making use of 0.4 cm electrode cuvettes. Cells were electroporated in the presence of […] of linearised pHIVΔRT plasmid and approximately 5 μg of RT PCR product at 250SF and 300 V, followed by a 30-min incubation at room temperature. Subsequently, 10 ml of fresh culture medium was added to the cell suspension and incubation was performed at 37° C. in a humidified atmosphere of 5% CO2.
(§3) During 7 to 10 days following the transfection, cells were monitored for the appearance of cytopathogenic effect (CPE). In the absence thereof, cells were subcultured in different flasks. Subsequently, culture supernatants of transfected cells were used to create a stock of recombinant virus and stored in 1.5 ml aliquots at −70° C.
(§4) After titration of the new viruses, the stocks were used for antiviral experiments in the presence of serial dilutions of different HIV inhibitors. Titres of the harvested supematants were determined by limited serial dilution titration of virus in MT4 cells.
(§5) Viruses with a useful titre were used in antiviral experiments. For this purpose, 96-well microtitre plates were filled with 100μl of complete culture medium. Subsequently, stock solutions of compounds were added in 25 μl volumes to series of duplicate wells. HIV- and mock-infected cell samples were included for each drug (or drug combination). Exponentially growing MT4 cells were then transferred to the microtitre plates at a density of 150,000 cells/ml. The cell cultures were then incubated at 37° C. in a humidified atmosphere of 5% CO2. Five days after infection, the viability of the mock- and HIV-infected cells was examined spectrophotometrically by the M1T method (Pauwels, R. et al. J. Virol. Meth. (1988), 20: 309-321) as described in Section 6 below.
(§6) To each well of the microtiter plates, 20 μl of a solution of MTT (7.5 mg/ml in PBS) was added. The plates were further incubated at 37° C. for 1 h. Then, 150 μl of medium was removed without disturbing the MT4 cell clusters containing the formazan crystals. Solubilization of the formazan crystals was achieved by adding 100 μl 5% Triton X-100 in acidified isopropanol (5 ml concentrated HCl per liter solvent). Complete dissolution of the formazan crystals was obtained after the plates had been placed on a plate shaker for 10 min. Finally the absorbances were read at two wavelengths (540 and 690 nm). From these optical density (OD) data, 50% inhibitory (IC50) and 50% cytotoxic (CC50) concentrations were derived.
(§7) A drug-naive HIV-infected patient donated plasma whose susceptibility to a number of RT inhibitors and protease inhibitors was determined according to the protocol set out in Example 1. Recombinant wild type HIV strain recIIIB was used as a reference HIV virus.

[2] = tested on: recombinant virus from patient viral RNA (Example 11); assay: Recombinant virus assay (MT4/MTT), patient of Example 11 (therapy history RT and protease inhibitors); settings: for ratio (1)/(2): Table 7, patient mean IC50 / recIIIB IC50, Example 11
Description: as §1, §2, §3, §4, §5, §6
as §7, with “An HIV infected” for “A drug-naive HIV-infected”, “patient with a therapy history including RT and protease inhibitors” for “patient”, “recIIIb” for “recIIIB”

[3] = tested on: recombinant virus from plasma of HIV-infected individuals on NNRTI long-term monotherapy; assay: Phenotyping of patients on NNRTI long-term monotherapy (Example 13), fold resistance
Description: as §4, §5, §6
Plasma samples were obtained from HIV-infected individuals who had been receiving non-nucleoside RT inhibitor (NNRTI) long-term monotherapy. HIV-RNA was extracted, reverse-transcribed and amplified as described in Example 1. Starting from outer PCR material of positive samples, the first 785 nucleotides of the RT gene were amplified and this material was further used for genotyping.
Amino acids changes at these positions are shown for each patient in the following rows. […] The right part of Table 9 presents the fold resistance to different RT inhibitors as determined by the method according to the invention for each of the patients' samples. NNRTI 1 is the non-nucleoside RT inhibitor that was administered to the patients.

[4] = tested on: recombinant virus from patient viral RNA (Example 12); assay: Recombinant virus assay (MT4/MTT), patient of Example 12 (therapy history RT and protease inhibitors); settings: for ratio (1)/(2): Table 8, patient mean IC50 / recIIIB IC50, Example 12
Description: as §1, §2, §3, §4, §5, §6
An HIV infected patient with a therapy history including RT and protease inhibitors donated plasma whose susceptibility to a number of RT inhibitors and protease inhibitors was determined according to the protocol set out in Example 1.

[5] = MT4 cells, read-out: Anti-HIV-1 activity IC50 (μM) Exp. 1
[6] = MT4 cells, read-out: Anti-HIV-1 activity IC50 (μM) Exp. 2
[7] = mean, read-out: Anti-HIV-1 activity IC50 (μM) Mean (1)
[8] = Human immunodeficiency virus 1, MT4, read-out: Anti-HIV-1 activity IC50 (μM) Exp. 1
[9] = Human immunodeficiency virus 1, MT4, read-out: Anti-HIV-1 activity IC50 (μM) Exp. 2
[10] = Human immunodeficiency virus 1, read-out: Anti-HIV-1 activity IC50 (μM) Mean (1)
[11] = Patient 4, no resistance associated mutation
[12] = Patient 5, no resistance associated mutation
[13] = Patient 11, RT mutations M41L, D67N, K70R, K103N, M184V, T215F, K219Q
[14] = Patient 12, RT mutations M41L, T215Y
[15] = Patient 13, RT mutations K101E, K103K/N, E138A, G190G/A
[16] = Patient 16, RT mutations K103N, M184V

| SMILES | IC50 [1, 5] | IC50 [1, 6] | IC50 [1, 7] | ratio (1)/(2) [1] | ratio (1)/(2) [2] | FOLD RESISTANCE TO ([3]; Patient 1, RT mutation K103N) | FOLD RESISTANCE TO ([3]; Patient 2, RT mutation K103S) | FOLD RESISTANCE TO ([3]; Patient 3, RT mutation K103N) | FOLD RESISTANCE TO [3, 11] | FOLD RESISTANCE TO [3, 12] | FOLD RESISTANCE TO ([3]; Patient 6, RT mutation K103N) | FOLD RESISTANCE TO ([3]; Patient 7, RT mutation K103S) | FOLD RESISTANCE TO ([3]; Patient 8, RT mutation K103N) | FOLD RESISTANCE TO ([3]; Patient 9, RT mutation Y181C) | FOLD RESISTANCE TO ([3]; Patient 10, RT mutation K103N) | FOLD RESISTANCE TO [3, 13] | FOLD RESISTANCE TO [3, 14] | FOLD RESISTANCE TO [3, 15] | FOLD RESISTANCE TO ([3]; Patient 14, RT mutation K103N) | FOLD RESISTANCE TO ([3]; Patient 15, RT mutation K103N) | other results |
| --- | --- | --- | --- | --- | --- | --- | --- | --- | --- | --- | --- | --- | --- | --- | --- | --- | --- | --- | --- | --- | --- |
| Nc1ccn([C@@H]2CS[C@H](CO)O2)c(=O)n1 [3TC, lamivudine] | 1.53 µM | 1.72 µM | 1.62 µM | 0.4 | 19 | 1 fold | 0.4 fold | 1 fold | 0.1 fold | 0.4 fold | 0.3 fold | 0.04 fold | 1 fold | 1 fold | 0.1 fold | >8 fold | 2 fold | 1 fold | 1 fold | 1 fold | IC50 [2, 8]: > 100 µM; IC50 [2, 9]: 94 µM; IC50 [2, 10]: ≥ 97 µM; FOLD RESISTANCE TO [3, 16]: >8 fold; FOLD RESISTANCE TO ([3]; Patient 17, RT mutation K103N): 1 fold; FOLD RESISTANCE TO ([3]; Patient 18, RT mutation K103S): 1 fold; FOLD RESISTANCE TO ([3]; Patient 19, RT mutation K103N): 1 fold; FOLD RESISTANCE TO ([3]; Patient 20, RT mutation A98G): 1 fold; FOLD RESISTANCE TO ([3]; Patient 21, RT mutation K103N): 0.4 fold; FOLD RESISTANCE TO ([3]; Patient 22, RT mutation V108I): 0.4 fold; FOLD RESISTANCE TO ([3]; Patient 23, RT mutation K103N): 0.2 fold; FOLD RESISTANCE TO ([3]; Patient 24, RT mutation K101Q): 1 fold; IC50 [4, 8]: > 100 µM; IC50 [4, 9]: > 100 µM; IC50 [4, 10]: > 100 µM; ratio (1)/(2) [4]: 22 |
| Cc1cn([C@H]2C[C@H](N=[N+]=[N-])[C@@H](CO)O2)c(=O)[nH]c1=O [AZT, zidovudine] | 0.019 µM | 0.019 µM | 0.019 µM | 0.5 | 0.3 | 1 fold | 1 fold | 0.4 fold | 0.3 fold | 1 fold | 1 fold | 1 fold | 1 fold | 2 fold | 0.4 fold | 94 fold | 28 fold | 1 fold | 1 fold | 2 fold | IC50 ([2]; Human immunodeficiency virus 1, Table 7, Example 11 patient virus, MT4 cells, read-out: Anti-HIV-1 activity IC50 (μM) Exp. 2): 0.015 µM; IC50 ([2]; Human immunodeficiency virus 1, Table 7, Example 11 patient virus, mean, read-out: Anti-HIV-1 activity IC50 (μM) Mean (1)): 0.015 µM; FOLD RESISTANCE TO [3, 16]: 1 fold; FOLD RESISTANCE TO ([3]; Patient 17, RT mutation K103N): 1 fold; FOLD RESISTANCE TO ([3]; Patient 18, RT mutation K103S): 1 fold; FOLD RESISTANCE TO ([3]; Patient 19, RT mutation K103N): 1 fold; FOLD RESISTANCE TO ([3]; Patient 20, RT mutation A98G): 0.4 fold; FOLD RESISTANCE TO ([3]; Patient 21, RT mutation K103N): 1 fold; FOLD RESISTANCE TO ([3]; Patient 22, RT mutation V108I): 1 fold; FOLD RESISTANCE TO ([3]; Patient 23, RT mutation K103N): 0.2 fold; FOLD RESISTANCE TO ([3]; Patient 24, RT mutation K101Q): 1 fold; susceptibility of the patient's HIV strain (in words) ([4]; Example 12 patient, conclusion from Table 8): decreased susceptibility; IC50 ([4]; Human immunodeficiency virus 1, Table 8, Example 12 patient virus, MT4 cells, read-out: Anti-HIV-1 activity IC50 (μM) Exp. 1): 3.83 µM; IC50 ([4]; Human immunodeficiency virus 1, Table 8, Example 12 patient virus, MT4 cells, read-out: Anti-HIV-1 activity IC50 (μM) Exp. 2): 3.35 µM; IC50 ([4]; Human immunodeficiency virus 1, Table 8, Example 12 patient virus, mean, read-out: Anti-HIV-1 activity IC50 (μM) Mean (1)): 3.59 µM; ratio (1)/(2) [4]: 88 |

From patent US6528251B2, “Method of managing the chemotherapy of patients who are HIV positive based on the phenotypic drug sensitivity of human HIV strains” (Virco N.V., priority 1996, dated 2003)
